The text below walks through data of patent US20100143993A1, “PROCESS FOR FERMENTIVE PREPARATIONFOR ALCOLHOLS AND RECOVERY OF PRODUCT” (E.I. DU PONT DE NEMOURS AND COMPANY, priority 2008, published 2010).

Where “and” joins values, the source holds several entries; their conditions need not be identical. Equal values may be shown once.

For data set [1], the system named is Lactobacillus fermentum (ATCC 14931). The data set can be described thus: Glucose Uptake Index of Lactobacillus fermentum culture with ionic liquid. In kind it is cell-based. Particulars: 5% (v/v) of the ionic liquid phase, MRS medium, 30° C., 16 hours after addition.
In data set [2] the test system is Lactobacillus zeae (ATCC 15820). The experiment in a line: Glucose Uptake Index of Lactobacillus zeae culture with ionic liquid. It counts as cell-based. To be noted: 5% (v/v) of the ionic liquid phase, MRS medium, 30° C., 16 hours after addition.
Experimental: This media was made per bottle instructions using sterilized water, and was then again filter sterilized before use. The test tubes were incubated at 30° C. at 175 rpm in an Inova Incubator (Karlsbad, Sweden). After 24 hours, the test tubes were removed and stored at 4° C.
A portion (50 μL) of each stock culture prepared as above was inoculated into separate 15 mL sterile polypropylene culture tubes containing fresh MRS medium (3 mL). These tubes were incubated for four hours at 30° C. at 175 rpm. After four hours, one of these culture tubes was inoculated with 150 μL (5% v/v) of each of the ionic liquids as listed in Table 1 below. […] Each tube that was inoculated with an ionic liquid was also paired with a tube that received no ionic liquid and was used as a control.
All culture tubes were then incubated again under the same conditions for another 16 hours. After 16 hours, the culture tubes were stored at −80° C. Analytical samples were taken from each culture tube by thawing the samples and spinning them at 28,000 rpm and 20° C. for ten minutes in a Sorvall Instruments RC3C (Newtown Conn.) centrifuge. One milliliter of supernatant was removed from each tube and was subjected to high performance liquid chromatography (HPLC) analysis using an Agilent (Palo Alto Calif.) HPLC 1100 with a BioRad Aminex 87-H using 0.008 N sulfuric acid with both diode array and refractive index detection, and an Agilent HPLC 1100 with a Shodex OH-pak column using 0.01 N sulfuric acid. Data analysis was performed using the Agilent Chemstation software and Microsoft Excel.
The glucose uptake index was calculated by taking the total glucose consumed in a fermentation sample, whether or not the sample contained an ionic liquid, and dividing it by the total initial glucose present in the broth at the start of fermentation.
Data set [3] is described as follows: Extraction of ethanol from an aqueous solution by ionic liquid. To be noted: for Ethanol: ethanol concentration in aqueous solution (about 31 g/L at start) after mixing with 5 vol % ionic liquid; for Ethanol / Ethanol Remaining in Solution: overnight equilibration, HPLC; for Ethanol Extracted: percentage relative to control without ionic liquid (Example 31); for Ethanol Extracted / Ethanol Remaining in Solution: 5 vol % ionic liquid; for Ethanol Remaining in Solution: aqueous solution about 31 g/L ethanol.

A short description of data set [4]: Extraction of isobutanol from an aqueous solution by ionic liquid. Particulars: for Isobutanol: isobutanol concentration in aqueous solution (about 31 g/L at start) after mixing with 5 vol % ionic liquid; for Isobutanol / Isobutanol Remaining in Solution: overnight equilibration, HPLC; for Isobutanol Extracted: percentage relative to control without ionic liquid (Example 31); for Isobutanol Extracted / Isobutanol Remaining in Solution: 5 vol % ionic liquid; for Isobutanol Remaining in Solution: aqueous solution about 31 g/L isobutanol.
Experimental: Ethanol and isobutanol concentration in the solution was measured using HPLC as described above following thorough mixing and overnight equilibration of the contents of the vial.

On to “1-butyl-3-methylimidazolium 1,1,2,3,3,3-hexafluoropropanesulfonate [[BMIM] [HFPS]]”, for which the “GUI of Sample (Glucose Utilization Index)” value in data set [1] was 8.0 and 11.5; in data set [2], 21.2 and 34.3.

As to “1-butyl-3-methylimidazolium bis(trifluoromethylsulfonyl)imide [[BMIM] [Tf2N]]”, the entries for the “GUI of Sample (Glucose Utilization Index)” value in data set [1] and in data set [2] were 26.8 and 64.4, respectively.

Turning to `CCCCn1cc[n+](C)c1.F[P-](F)(F)(F)(F)F` [[BMIM] [PF6], 1-butyl-3-methylimidazolium hexafluorophosphate], the “GUI of Sample (Glucose Utilization Index)” value in data set [2] is on record as 55.4.

With “1-butyl-3-methylimidazolium 1,1,2-trifluoro-2-(perfluoroethoxy)ethanesulfonate [[BMIM] [TPES]]”, the “GUI of Sample (Glucose Utilization Index)” value in data set [1] worked out at 7.21; in data set [2], 5.06.

Take `CCCCCCn1cc[n+](C)c1.FC(F)(F)C(F)(F)[P-](F)(F)(F)(C(F)(F)C(F)(F)F)C(F)(F)C(F)(F)F` [[HMIM] [FAP], 1-hexyl-3-methylimidazolium tris(pentafluoroethyl)trifluorophosphate]: in data set [3], the “Ethanol” value amounted to 680 mM and the “Ethanol Extracted” value was 0.45%. In addition, the “GUI of Sample (Glucose Utilization Index)” value in data set [1] came out at 84.7. The “GUI of Sample (Glucose Utilization Index)” value in data set [2] was 51.9. Besides, in data set [4], the “Isobutanol” value came out at 404 mM and the “Isobutanol Extracted” value is listed as 3.14%.

On to “1-ethyl-3-methylimidazolium bis(pentafluoroethylsulfonyl)imide [[EMIM] [BEI]]”, for which the “GUI of Sample (Glucose Utilization Index)” value in data set [1] is 25.5; in data set [2], 36.0.

On to “tetradecyl(tri-n-hexyl)phosphonium 1,1,2-trifluoro-2-(perfluoroethoxy)ethanesulfonate [[6,6,6,14-P] [TPES]]”, for which the entries for the “GUI of Sample (Glucose Utilization Index)” value in data set [1] and in data set [2] were 92.8 and 62.8, respectively.

Consider “1-butyl-3-methylpyrrolidinium bis(trifluoromethylsulfonyl)imide [[BMP] [Tf2N]]”, for which, in data set [3], the “Ethanol Remaining in Solution” value is reported as 31.1 g/L, the “Ethanol” value came to 676 mM and the “Ethanol Extracted” value came to 1.17%. Further, in data set [1], the “GUI of Sample (Glucose Utilization Index)” value came to 0.96. In addition, in data set [2], the “GUI of Sample (Glucose Utilization Index)” value was 49.8. Moreover, in data set [4], the “Isobutanol Remaining in Solution” value is listed as 29.0 g/L, the “Isobutanol” value is recorded as 391 mM and the “Isobutanol Extracted” value stood at 6.33%.

On to “1-butyl-3-methylimidazolium 1,1,2-trifluoro-2-(trifluoromethoxy)ethanesulfonate [[BMIM] [TTES]]”, for which the “GUI of Sample (Glucose Utilization Index)” value in data set [1] turned out to be 16.2; in data set [2], 58.8.

Turning to “1-butyl-3-methylimidazolium 2-(1,2,2,2-tetrafluoroethoxy)-1,1,2,2-tetrafluoroethanesulfonate [[BMIM] [FS]]”, the “GUI of Sample (Glucose Utilization Index)” value in data set [1] is recorded as 24.0; in data set [2], 54.4.

With “3-methyl-1-propylpyridinium bis(trifluoromethylsulfonyl)imide [[PMPy] [Tf2N]]”, the “GUI of Sample (Glucose Utilization Index)” value was found to be 26.1 in data set [1] and 63.5 in data set [2].

On to “1-ethyl-3-methylimidazolium bis(trifluoromethylsulfonyl)imide [[EMIM] [Tf2N]]”, for which, in data set [3], the “Ethanol Remaining in Solution” value turned out to be 30.9 g/L, the “Ethanol” value is recorded as 670 mM and the “Ethanol Extracted” value was 1.96%. Further, in data set [1], the “GUI of Sample (Glucose Utilization Index)” value was found to be 54.5. Further, the “GUI of Sample (Glucose Utilization Index)” value in data set [2] is reported as 51.2. Besides, in data set [4], the “Isobutanol Remaining in Solution” value worked out at 28.8 g/L, the “Isobutanol” value amounted to 389 mM and the “Isobutanol Extracted” value stood at 7.11%.

On to “1-hexyl-3-methylimidazolium bis(trifluoromethylsulfonyl)imide [[HMIM] [Tf2N]]”, for which, in data set [3], the “Ethanol Remaining in Solution” value worked out at 31.3 g/L, the “Ethanol” value is recorded as 678 mM and the “Ethanol Extracted” value is given as 0.76%. Also, the “GUI of Sample (Glucose Utilization Index)” value in data set [1] is 19.5. For the same molecule, the “GUI of Sample (Glucose Utilization Index)” value in data set [2] is recorded as 66.2. Further, in data set [4], the “Isobutanol Remaining in Solution” value was found to be 28.8 g/L, the “Isobutanol” value was determined as 388 mM and the “Isobutanol Extracted” value was 7.28%.

Take `CCCCn1cc[n+](C)c1.F[B-](F)(F)F` [[BMIM] [BF4], 1-butyl-3-methylimidazolium tetrafluoroborate]: in data set [2], the “GUI of Sample (Glucose Utilization Index)” value is 11.8.
